Where two headings read alike, the source gives them in different places.
Legend:
[1] = molecular target: T1, Isoform 1 of Nicotinamide phosphoribosyltransferase (Homo sapiens, UniProt P43490); assay: binding to immobilized V16742 (IVA1/IVA2, HeLa lysate, MS)
T1 construct: endogenous in cells; host or cells: HeLa S3

ROCK2 = ROCK2 (Homo sapiens, UniProt O75116); assay: as above
TLK1 = molecular target: T2, TLK1 (Homo sapiens, UniProt Q9UKI8); assay: as above
T2 construct: endogenous in cells; host or cells: HeLa S3
T2 sequence (Q9UKI8 1-766): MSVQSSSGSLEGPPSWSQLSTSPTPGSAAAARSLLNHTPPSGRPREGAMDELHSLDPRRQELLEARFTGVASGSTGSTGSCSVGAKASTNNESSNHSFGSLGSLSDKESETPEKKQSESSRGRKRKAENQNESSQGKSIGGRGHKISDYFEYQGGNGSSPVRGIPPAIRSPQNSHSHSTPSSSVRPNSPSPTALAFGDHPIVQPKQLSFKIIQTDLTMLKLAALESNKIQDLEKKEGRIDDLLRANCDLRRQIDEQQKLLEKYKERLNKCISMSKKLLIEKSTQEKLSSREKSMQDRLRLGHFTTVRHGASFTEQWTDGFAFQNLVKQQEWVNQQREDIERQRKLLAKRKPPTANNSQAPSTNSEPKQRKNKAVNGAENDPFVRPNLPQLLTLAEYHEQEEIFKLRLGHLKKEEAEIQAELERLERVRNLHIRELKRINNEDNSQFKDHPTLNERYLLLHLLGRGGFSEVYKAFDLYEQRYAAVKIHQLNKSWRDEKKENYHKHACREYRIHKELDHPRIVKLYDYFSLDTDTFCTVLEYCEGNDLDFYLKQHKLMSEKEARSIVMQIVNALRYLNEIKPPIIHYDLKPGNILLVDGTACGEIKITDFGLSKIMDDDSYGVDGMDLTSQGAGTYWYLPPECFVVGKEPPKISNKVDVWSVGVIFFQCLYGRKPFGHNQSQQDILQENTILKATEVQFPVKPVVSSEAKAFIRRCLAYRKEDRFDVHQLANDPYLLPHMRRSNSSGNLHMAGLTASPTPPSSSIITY

CK1e (CSNK1E) = CK1e (CSNK1E) (Homo sapiens, UniProt P49674)
Chain of CK1e (CSNK1E) (P49674 whole entry): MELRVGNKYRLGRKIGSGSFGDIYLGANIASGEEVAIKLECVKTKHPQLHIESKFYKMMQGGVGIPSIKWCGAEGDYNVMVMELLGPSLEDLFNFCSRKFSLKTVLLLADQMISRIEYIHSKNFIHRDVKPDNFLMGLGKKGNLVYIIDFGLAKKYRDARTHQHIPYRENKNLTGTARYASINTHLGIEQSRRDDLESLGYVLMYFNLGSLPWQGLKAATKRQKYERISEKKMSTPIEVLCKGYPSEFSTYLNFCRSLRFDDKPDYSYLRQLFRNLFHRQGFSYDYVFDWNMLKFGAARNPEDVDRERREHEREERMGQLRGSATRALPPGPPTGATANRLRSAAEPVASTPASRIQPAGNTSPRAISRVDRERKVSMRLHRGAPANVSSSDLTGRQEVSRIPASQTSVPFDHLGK

EphB2 = molecular target: T3, EphB2 (Homo sapiens, UniProt P29323)
T3 sequence (P29323 19-1055): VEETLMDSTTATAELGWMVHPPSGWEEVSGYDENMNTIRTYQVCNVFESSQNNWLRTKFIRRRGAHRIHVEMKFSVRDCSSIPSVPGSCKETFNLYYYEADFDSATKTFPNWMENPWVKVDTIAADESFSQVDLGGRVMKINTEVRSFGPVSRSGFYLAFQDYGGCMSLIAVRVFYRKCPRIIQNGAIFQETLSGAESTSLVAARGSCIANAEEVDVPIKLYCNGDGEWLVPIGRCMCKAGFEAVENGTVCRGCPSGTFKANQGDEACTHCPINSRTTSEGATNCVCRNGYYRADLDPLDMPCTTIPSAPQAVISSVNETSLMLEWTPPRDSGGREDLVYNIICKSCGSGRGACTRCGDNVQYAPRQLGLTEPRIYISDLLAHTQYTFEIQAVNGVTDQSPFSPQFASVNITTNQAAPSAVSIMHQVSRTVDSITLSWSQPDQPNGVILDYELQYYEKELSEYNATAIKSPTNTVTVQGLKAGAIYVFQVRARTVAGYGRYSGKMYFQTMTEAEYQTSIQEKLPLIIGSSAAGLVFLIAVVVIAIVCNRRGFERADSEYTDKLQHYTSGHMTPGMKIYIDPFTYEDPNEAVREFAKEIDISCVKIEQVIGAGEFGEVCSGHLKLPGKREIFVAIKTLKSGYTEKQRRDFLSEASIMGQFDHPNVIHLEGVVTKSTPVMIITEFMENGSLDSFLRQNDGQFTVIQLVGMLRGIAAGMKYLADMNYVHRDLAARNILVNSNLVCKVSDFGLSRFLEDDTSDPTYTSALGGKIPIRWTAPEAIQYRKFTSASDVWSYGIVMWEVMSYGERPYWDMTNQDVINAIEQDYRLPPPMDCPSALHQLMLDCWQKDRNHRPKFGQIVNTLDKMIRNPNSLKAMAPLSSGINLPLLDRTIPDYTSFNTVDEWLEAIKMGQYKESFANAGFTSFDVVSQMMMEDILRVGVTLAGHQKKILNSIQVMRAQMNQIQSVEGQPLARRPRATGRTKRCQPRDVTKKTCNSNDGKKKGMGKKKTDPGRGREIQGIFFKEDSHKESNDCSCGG

NAMPT = NAMPT (Homo sapiens, UniProt P43490)
Chain of NAMPT (P43490 whole entry): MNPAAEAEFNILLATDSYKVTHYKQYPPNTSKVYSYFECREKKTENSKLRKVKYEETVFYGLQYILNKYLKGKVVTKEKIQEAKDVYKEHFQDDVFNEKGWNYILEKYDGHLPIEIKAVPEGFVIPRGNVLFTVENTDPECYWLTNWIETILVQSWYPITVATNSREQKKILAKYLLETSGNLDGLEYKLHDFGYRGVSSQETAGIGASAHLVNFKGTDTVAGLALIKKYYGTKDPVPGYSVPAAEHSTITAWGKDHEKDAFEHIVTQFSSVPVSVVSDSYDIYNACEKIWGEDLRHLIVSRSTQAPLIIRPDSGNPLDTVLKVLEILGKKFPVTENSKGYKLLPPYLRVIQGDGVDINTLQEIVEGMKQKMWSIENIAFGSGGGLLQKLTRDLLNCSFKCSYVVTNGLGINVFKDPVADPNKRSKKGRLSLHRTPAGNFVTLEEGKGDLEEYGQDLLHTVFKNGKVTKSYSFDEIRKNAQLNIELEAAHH

[2] = average of two experiments, read-out: Kd Avg

T1 sequence (P43490 whole entry, canonical isoform): as the sequence (P43490 whole entry) above
Chain of ROCK2 (O75116 whole entry): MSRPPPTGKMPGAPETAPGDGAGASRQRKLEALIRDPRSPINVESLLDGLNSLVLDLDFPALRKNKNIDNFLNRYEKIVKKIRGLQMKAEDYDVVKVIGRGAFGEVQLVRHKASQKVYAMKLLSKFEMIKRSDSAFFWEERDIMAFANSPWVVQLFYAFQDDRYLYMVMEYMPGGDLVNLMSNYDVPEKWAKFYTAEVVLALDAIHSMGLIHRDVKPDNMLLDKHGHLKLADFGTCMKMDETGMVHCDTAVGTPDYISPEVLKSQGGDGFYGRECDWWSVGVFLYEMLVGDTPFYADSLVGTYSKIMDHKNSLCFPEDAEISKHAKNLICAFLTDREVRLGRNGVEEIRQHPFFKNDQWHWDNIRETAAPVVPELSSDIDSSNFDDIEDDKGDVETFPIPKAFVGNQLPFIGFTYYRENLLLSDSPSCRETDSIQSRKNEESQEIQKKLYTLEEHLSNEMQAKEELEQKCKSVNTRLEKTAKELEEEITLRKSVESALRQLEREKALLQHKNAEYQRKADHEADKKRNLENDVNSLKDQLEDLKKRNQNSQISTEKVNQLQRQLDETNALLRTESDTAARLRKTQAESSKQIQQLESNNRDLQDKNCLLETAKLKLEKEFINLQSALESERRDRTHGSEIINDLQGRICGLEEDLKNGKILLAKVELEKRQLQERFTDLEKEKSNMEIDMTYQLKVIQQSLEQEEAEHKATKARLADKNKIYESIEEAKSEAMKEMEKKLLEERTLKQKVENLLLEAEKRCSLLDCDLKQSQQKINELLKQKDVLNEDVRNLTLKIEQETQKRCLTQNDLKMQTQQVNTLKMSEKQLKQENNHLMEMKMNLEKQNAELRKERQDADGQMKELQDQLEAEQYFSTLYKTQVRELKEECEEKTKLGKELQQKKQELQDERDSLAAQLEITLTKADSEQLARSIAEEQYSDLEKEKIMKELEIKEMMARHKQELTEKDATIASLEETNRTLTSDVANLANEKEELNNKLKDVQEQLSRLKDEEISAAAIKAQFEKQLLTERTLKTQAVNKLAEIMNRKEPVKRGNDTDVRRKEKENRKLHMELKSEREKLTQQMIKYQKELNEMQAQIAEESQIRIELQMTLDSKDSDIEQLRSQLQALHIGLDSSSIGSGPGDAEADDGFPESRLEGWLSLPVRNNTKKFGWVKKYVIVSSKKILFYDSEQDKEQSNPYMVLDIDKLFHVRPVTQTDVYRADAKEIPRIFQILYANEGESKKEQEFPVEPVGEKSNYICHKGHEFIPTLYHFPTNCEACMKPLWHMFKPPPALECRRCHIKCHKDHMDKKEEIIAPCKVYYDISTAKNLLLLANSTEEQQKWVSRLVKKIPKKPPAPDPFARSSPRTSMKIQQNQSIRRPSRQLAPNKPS

Structure (SMILES): CC(C)n1c(=O)ccc2cnc(Nc3ccc(OCCN)cc3)nc21 [V16742]
- Percent bound at various 16742 conc ([1]; Experiment 1, 1.87 μM 16742): 2.80%
- Percent bound at various 16742 conc ([1]; Experiment 1, 8.74 μM 16742): 2.70%
- Percent bound at various 16742 conc ([1]; Experiment 1, 52 μM 16742): 54.03%
- Kd ([1]; Experiment 1, read-out: Kd): 54.8 µM
- Percent bound at various 16742 conc ([1]; Experiment 2, 1.87 μM 16742): 2.28%
- Percent bound at various 16742 conc ([1]; Experiment 2, 8.74 μM 16742): 3.40%
- Percent bound at various 16742 conc ([1]; Experiment 2, 52 μM 16742): 41.68%
- Kd ([1]; Experiment 2, read-out: Kd): 80.3 µM
- Kd [1, 2]: 67.5 µM
- affinity class of target for V16742 (ROCK2): Very low affinity target not significantly enriched in IVA2
- Percent bound at various 16742 conc (TLK1; Experiment 1, 1.87 μM 16742): 1.34%
- Percent bound at various 16742 conc (TLK1; Experiment 1, 8.74 μM 16742): 2.39%
- Percent bound at various 16742 conc (TLK1; Experiment 1, 52 μM 16742): 49.12%
- Kd (TLK1; Experiment 1, read-out: Kd): 64 µM
- Percent bound at various 16742 conc (TLK1; Experiment 2, 1.87 μM 16742): 0.76%
- Percent bound at various 16742 conc (TLK1; Experiment 2, 8.74 μM 16742): 1.97%
- Percent bound at various 16742 conc (TLK1; Experiment 2, 52 μM 16742): 31.56%
- Kd (TLK1; Experiment 2, read-out: Kd): 121 µM
- Kd (TLK1; [2]): 92.4 µM

Structure (SMILES): COc1cc2ncnc(Nc3ccc(F)c(Cl)c3)c2cc1OCCCN1CCOCC1 [gefitinib]
- rAVERAGE (10 nM/0 nM Gef.) (CK1e (CSNK1E)): 0.80
- rAVERAGE (100 nM/0 nM Gef.) (CK1e (CSNK1E)): 1.00
- rAVERAGE (1000 nM/0 nM Gef.) (CK1e (CSNK1E)): 0.84
- rAVERAGE (10000 nM/0 nM Gef.) (CK1e (CSNK1E)): 0.59
- rAVERAGE (10 nM/0 nM Gef.) (EphB2): 0.88
- rAVERAGE (100 nM/0 nM Gef.) (EphB2): 0.90
- rAVERAGE (1000 nM/0 nM Gef.) (EphB2): 0.85
- rAVERAGE (10000 nM/0 nM Gef.) (EphB2): 0.33
- rAVERAGE (10 nM/0 nM Gef.) (NAMPT): 0.71
- rAVERAGE (100 nM/0 nM Gef.) (NAMPT): 0.74
- rAVERAGE (1000 nM/0 nM Gef.) (NAMPT): 0.73
- rAVERAGE (10000 nM/0 nM Gef.) (NAMPT): 0.92
